Experimental data: the supplement of paper PMC11368000

Key:
Conditions in all cases: exposure time: 90 min
[1] = tested on: 30145 (donor line of iPSC-derived cardiomyocytes); assay: POD (EC05) for increase in beat frequency (positive chronotrope) vs vehicle; higher = less potent (higher point of departure)
In short: (§1)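 Human iPSC-derived cardiomyocytes from 16 donors were cultured 14 days in gelatin-coated 384-well plates and loaded 2 h with fluorescent Ca2+ dye. They were then exposed for 90 min at 37 °C to 0.1, 1, 10 and 100 µM (final, 0.5% DMSO). Ca2+ flux was recorded on a FLIPR Tetra (8 frames/s, 100 s) before and after exposure. Donor-specific points of departure came from hierarchical Bayesian Hill fits to vehicle-normalised beat frequency, decay-to-rise ratio or peak frequency. Thresholds were 5% change, or 95% loss for peak frequency.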

[2] = tested on: 1518 (donor line of iPSC-derived cardiomyocytes); assay: POD (EC05) for decrease in beat frequency (negative chronotrope) vs vehicle; higher = less potent (higher point of departure)
Experimental: (§2)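 Human iPSC-derived cardiomyocytes from 16 donors were exposed for 90 min at 37 °C to each PFAS at 0.1, 1, 10 and 100 µM in 0.5% DMSO, 384-well plates. Kinetic Ca2+ flux (FLIPR) and Hoechst nuclei counts were normalised to vehicle wells and fitted with a hierarchical Bayesian Hill model to give donor-specific PODs: EC05 for beat-rate increase or decrease and for decay-to-rise ratio increase (QT proxy), EC95 for peak-frequency loss (asystole), EC10 for total cell number loss. 0.03 µM is the lower bound.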

[3] = tested on: 1392 (donor line of iPSC-derived cardiomyocytes); assay: as above
Experimental: as §2

[4] = tested on: 1535 (donor line of iPSC-derived cardiomyocytes); assay: as above
Experimental: as §2

[5] = tested on: 1368 (donor line of iPSC-derived cardiomyocytes); assay: as above
Experimental: as §2

[6] = tested on: 1516 (donor line of iPSC-derived cardiomyocytes); assay: as above
Experimental: as §2

[7] = tested on: 1531 (donor line of iPSC-derived cardiomyocytes); assay: as above
Experimental: as §2

[8] = tested on: 1309 (donor line of iPSC-derived cardiomyocytes); assay: as above
Experimental: as §2

[9] = tested on: 1434 (donor line of iPSC-derived cardiomyocytes); assay: as above
Experimental: as §2

[10] = tested on: 20032 (donor line of iPSC-derived cardiomyocytes); assay: as above
Experimental: as §2

[11] = tested on: 11235 (donor line of iPSC-derived cardiomyocytes); assay: as above
Experimental: as §2

[12] = tested on: 30145; assay: as above
Experimental: as §2

[13] = tested on: 1083 (donor line of iPSC-derived cardiomyocytes); assay: as above
Experimental: as §2

[14] = tested on: 30171 (donor line of iPSC-derived cardiomyocytes); assay: as above
Experimental: as §2

[15] = tested on: 20084 (donor line of iPSC-derived cardiomyocytes); assay: as above
Experimental: as §2

[16] = tested on: 1118 (donor line of iPSC-derived cardiomyocytes); assay: as above
Experimental: as §2

[17] = tested on: 1565 (donor line of iPSC-derived cardiomyocytes); assay: as above
Experimental: as §2

[18] = tested on: 1518; assay: POD (EC05) for increase in Ca2+ transient decay-to-rise ratio (QT prolongation) vs vehicle; higher = less potent (higher point of departure)
In short: as §1

[19] = tested on: 1516; assay: as above
In short: as §1

[20] = tested on: 1531; assay: as above
In short: as §1

Structure (SMILES) | POD vs vehicle [1] | POD vs vehicle [2] | POD vs vehicle [3] | POD vs vehicle [4] | POD vs vehicle [5] | POD vs vehicle [6] | POD vs vehicle [7] | POD vs vehicle [8] | POD vs vehicle [9] | POD vs vehicle [10] | POD vs vehicle [11] | POD vs vehicle [12] | POD vs vehicle [13] | POD vs vehicle [14] | POD vs vehicle [15] | POD vs vehicle [16] | POD vs vehicle [17] | POD vs vehicle [18] | POD vs vehicle [19] | POD vs vehicle [20]
NC(=O)C(F)(F)C(F)(F)C(F)(F)C(F)(F)C(N)=O [Octafluoroadipamide] | > 100 µM | > 100 µM | > 100 µM | > 100 µM | > 100 µM | > 100 µM | > 100 µM | > 100 µM | > 100 µM | > 100 µM | > 100 µM | > 100 µM | > 100 µM | > 100 µM | > 100 µM | > 100 µM | > 100 µM | > 100 µM | > 100 µM | > 100 µM
OCCC(F)(F)C(F)(F)C(F)(F)C(F)(F)C(F)(F)C(F)(F)C(F)(F)C(F)(F)F [8:2 Fluorotelomer alcohol] | > 100 µM | > 100 µM | > 100 µM | > 100 µM | > 100 µM | > 100 µM | > 100 µM | > 100 µM | > 100 µM | > 100 µM | > 100 µM | > 100 µM | > 100 µM | > 100 µM | > 100 µM | > 100 µM | > 100 µM | > 100 µM | > 100 µM | > 100 µM
CC(O)C(F)(F)C(F)(F)F (stereo not given) [1-Pentafluoroethylethanol] | > 100 µM | > 100 µM | > 100 µM | > 100 µM | > 100 µM | > 100 µM | > 100 µM | > 100 µM | > 100 µM | > 100 µM | > 100 µM | > 100 µM | > 100 µM | > 100 µM | > 100 µM | > 100 µM | > 100 µM | > 100 µM | > 100 µM | > 100 µM
O=C(O)C(F)(F)C(F)(F)C(F)(F)F [Perfluorobutanoic_acid] | > 100 µM | > 100 µM | > 100 µM | > 100 µM | > 100 µM | > 100 µM | > 100 µM | > 100 µM | > 100 µM | > 100 µM | > 100 µM | > 100 µM | > 100 µM | > 100 µM | > 100 µM | > 100 µM | > 100 µM | > 100 µM | > 100 µM | > 100 µM
O=C(O)C(F)(F)C(F)(F)C(F)(F)C(F)(F)C(F)(F)F [Perfluorohexanoic_acid] | > 100 µM | > 100 µM | > 100 µM | > 100 µM | > 100 µM | > 100 µM | > 100 µM | > 100 µM | > 100 µM | > 100 µM | > 100 µM | > 100 µM | > 100 µM | > 100 µM | > 100 µM | > 100 µM | > 100 µM | > 100 µM | > 100 µM | > 100 µM
O=S(=O)(O)C(F)(F)C(F)(F)C(F)(F)C(F)(F)C(F)(F)C(F)(F)F [Perfluorohexanesulfonic_acid] | > 100 µM | > 100 µM | > 100 µM | 43.4 µM | > 100 µM | 17.6 µM | 24.5 µM | 78.1 µM | 63.6 µM | 84.5 µM | 26.5 µM | > 100 µM | > 100 µM | 46.1 µM | > 100 µM | 19.6 µM | 81.7 µM | > 100 µM | > 100 µM | > 100 µM
O=C(O)C(F)(F)C(F)(F)C(F)(F)OC(F)(F)F [Perfluoro(4-methoxybutanoic)_acid] | > 100 µM | > 100 µM | > 100 µM | > 100 µM | > 100 µM | > 100 µM | > 100 µM | > 100 µM | > 100 µM | > 100 µM | > 100 µM | > 100 µM | > 100 µM | > 100 µM | > 100 µM | > 100 µM | > 100 µM | > 100 µM | > 100 µM | > 100 µM
OCC(F)(F)C(F)(F)C(F)(F)C(F)(F)C(F)(F)C(F)F [Dodecafluoroheptanol] | > 100 µM | 14.9 µM | 18 µM | 18.4 µM | 13.7 µM | 18.9 µM | 15.7 µM | 19.4 µM | 18.1 µM | 18.3 µM | 19.2 µM | 19.4 µM | 15.3 µM | 20.1 µM | 19.3 µM | 1.39 µM | 20.3 µM | > 100 µM | > 100 µM | > 100 µM
O=S(=O)(O)CCC(F)(F)C(F)(F)C(F)(F)C(F)(F)C(F)(F)C(F)(F)C(F)(F)C(F)(F)F [8:2 Fluorotelomer sulfonic acid] | > 100 µM | 65.7 µM | > 100 µM | 60.9 µM | > 100 µM | 6.6 µM | 1.06 µM | 33.9 µM | 12.8 µM | 34.5 µM | 0.121 µM | 15.3 µM | > 100 µM | 6.39 µM | 0.768 µM | > 100 µM | 9.96 µM | > 100 µM | 38 µM | 47.4 µM
OCCC(F)(F)C(F)(F)C(F)(F)C(F)(F)C(F)(F)C(F)(F)F [6:2 Fluorotelomer alcohol] | > 100 µM | > 100 µM | > 100 µM | > 100 µM | > 100 µM | > 100 µM | > 100 µM | > 100 µM | > 100 µM | > 100 µM | > 100 µM | > 100 µM | 58.7 µM | > 100 µM | > 100 µM | 31.5 µM | > 100 µM | > 100 µM | > 100 µM | > 100 µM
O=C(O)C(F)(F)C(F)(F)OC(F)(F)F [Perfluoro-3-methoxypropanoic_acid] | > 100 µM | > 100 µM | > 100 µM | > 100 µM | > 100 µM | > 100 µM | > 100 µM | > 100 µM | > 100 µM | > 100 µM | > 100 µM | > 100 µM | > 100 µM | > 100 µM | > 100 µM | > 100 µM | > 100 µM | > 100 µM | > 100 µM | > 100 µM
COC(=O)C(F)(F)C(F)(F)OC(F)(C(F)(F)F)C(F)(F)OC(F)=C(F)F (stereo not given) [Methyl_perfluoro(3-(1-ethenyloxypropan-2-yloxy)propanoate)] | > 100 µM | > 100 µM | > 100 µM | > 100 µM | > 100 µM | > 100 µM | > 100 µM | > 100 µM | > 100 µM | > 100 µM | > 100 µM | > 100 µM | > 100 µM | > 100 µM | > 100 µM | > 100 µM | > 100 µM | > 100 µM | > 100 µM | 24.9 µM
O=C(O)CCC(F)(F)C(F)(F)C(F)(F)C(F)(F)C(F)(F)C(F)(F)C(F)(F)F [3-Perfluoroheptylpropanoic_acid] | > 100 µM | > 100 µM | > 100 µM | > 100 µM | > 100 µM | 56.9 µM | 80.7 µM | > 100 µM | 21 µM | > 100 µM | 20.2 µM | > 100 µM | > 100 µM | 24.9 µM | > 100 µM | 13.8 µM | > 100 µM | > 100 µM | > 100 µM | 25.4 µM
O=S(=O)(O)C(F)(F)C(F)(F)C(F)(F)C(F)(F)C(F)(F)C(F)(F)C(F)(F)C(F)(F)F [Perfluorooctanesulfonic_acid] | > 100 µM | > 100 µM | > 100 µM | > 100 µM | > 100 µM | 20.4 µM | 59.1 µM | > 100 µM | 13.3 µM | > 100 µM | 0.581 µM | > 100 µM | > 100 µM | 6.94 µM | 80.7 µM | 10.6 µM | > 100 µM | > 100 µM | > 100 µM | > 100 µM
